Data as given in patent US10294248B2, “Beta-lactamase inhibitors” (VenatoRx Pharmaceuticals, Inc., priority 2013, dated 2019).

Experiments:
[1] = molecular target: T1, SHV-5 β-lactamase (Class A ESBL) (Klebsiella pneumoniae, UniProt P0A3M1); experiment: β-Lactamase inhibition, SHV-5; type: biochemical
T1 construct: made in house; host or cells: E. coli BL21(DE3)
Experimental: (§1) For SHV-5, Kpc-2, p99AmpC and OXA-1 β-lactamases, E. coli BL21(DE3) bacterial cells carrying expression plasmids (expressed as native untagged proteins) for the individual β-lactamases were grown in 1 L of Superbroth (Teknova Inc. Hollister, Calif.) supplemented with 100 μg/ml kanamycin selection and 1×5052 (0.5% glycerol, 0.05% glucose and 0.2% α-lactose) at 35° C. for 18-20 hours. Cells were harvested by centrifugation (4,000×g, 4° C., 20 min), resuspended in 50 ml of 10 mM HEPES pH 7.5 ( 1/20 of the initial volume). The cells were lysed by sonication (5 pulses of 45 seconds) at 45 W on ice. The lysates were clarified by centrifugation at 10,000×g for 40 minutes at 4° C. Samples were diluted 5-fold in 50 mM sodium acetate pH 5.0, stored overnight at 4° C., after which they were centrifuged at 10,000×g for 30 minutes to clarify, and filtered through 0.45 μm filters. The samples were loaded onto a 5 ml Capto S sepharose cation exchange column (GE Healthcare) pre-equilibrated with 50 mM sodium acetate pH 5.0. The column was washed with 5 column volumes of 50 mM sodium acetate pH 5.0 to wash out unbound protein and a linear gradient of NaCl (0 to 500 mM) was used to elute the protein (over 16 CV) from the column. Fractions were assayed for β-lactamase activity using Centa (Calbiochem, Gibbstown, N.J.) or Nitrocefin (EMD Millipore chemicals, Darmstadt, Germany) as a reporter β-lactamase substrate for activity in the isolated fractions. Active fractions were pooled, concentrated and further purified by gel filtration chromatography on a Superdex 75 prep grade gel filtration column (GE Healthcare, Piscataway, N.J.) pre-equilibrated in 50 mM Hepes pH 7.5, 150 mM NaCl. Active fractions were pooled concentrated, quantitated by BCA protein determination (Thermo Scientific, Rockford, Ill.), dialyzed into PBS and frozen at −80° C. in 20% glycerol until use.
(§2) An equal volume of diluted enzyme stock was added, and the plates were incubated at 37° C. for 15 min. Nitrocefin was used as substrate for p99 AmpC, VIM-2 and OXA-1 and dispensed into each well at a final concentration of 100 μM. Absorbance at 486 nm was immediately monitored for 10 min using a Biotek Powerwave XS2 microplate spectrophotometer using the GEN5 software package (Biotek Instruments, Winooski Vt.). In an analogous fashion, imipenem was used as substrate for Kpc-2 and Cefotaxime was used for SHV-5, while changes in absorbance upon hydrolysis of the β-lactam ring were monitored at 300 nm and 260 nm respectively in UV-transparent 96-well microtiter assay plates. Maximum rates of hydrolysis were compared to those in control wells (without inhibitors), and percentages of enzyme inhibition were calculated for each concentration of inhibitor. The concentration of inhibitor needed to reduce the initial rate of hydrolysis of substrate by 50% (IC50) was calculated as the residual activity of β-lactamase at 486 nm using GraFit version 7 kinetics software package (Erithacus Software, Surrey, UK).
(§3) Using the methodology described above, examples of the current invention were evaluated for their ability to inhibit β-lactamase enzymes from all four Ambler classifications (A through D). […] NT=Not tested.

[2] = molecular target: T2, KPC-2 β-lactamase (Class A carbapenemase) (Klebsiella pneumoniae, UniProt Q9F663); experiment: β-Lactamase inhibition, KPC-2; type: biochemical; conditions: imipenem substrate, 300 nm; 15 min preincubation at 37° C., PBS pH 7.4
T2 construct: made in house; host or cells: E. coli BL21(DE3)
Experimental: as §1, §2, §3

[3] = molecular target: T3, VIM-2 metallo-β-lactamase (Class B) (Pseudomonas aeruginosa, UniProt Q9K2N0); experiment: β-Lactamase inhibition, VIM-2; type: biochemical; conditions: nitrocefin 100 μM, 486 nm; 15 min preincubation at 37° C., PBS pH 7.4
T3 construct: made in house; host or cells: E. coli BL21(DE3)
Experimental: For Vim-2 metallo β-lactamase, the procedure was identical with the following exceptions, first the protein was not pH adjusted to pH 5 with 50 mM sodium acetate, second, the chromatography step was changed to a 5 ml Q sepharose anion exchange column pre-equilibrated with 50 mM Hepes pH 7.5, and elution of the protein was achieved by a linear gradient of NaCl (0-600 mM). Finally, the VIM-2 purification required a second run (3rd step) on the Q sepharose anion exchange column to achieve acceptable purity (>90%).
as §2, §3

[4] = molecular target: T4, p99 AmpC β-lactamase (Class C) (Enterobacter cloacae, UniProt P05364); experiment: β-Lactamase inhibition, p99 AmpC; type: biochemical
T4 construct: made in house; host or cells: E. coli BL21(DE3)
Experimental: as §1, §2, §3

[5] = tested on: E. coli ESBL4 expressing CTX-M-15; experiment: Broth microdilution MIC, E. coli ESBL4 CTX-M-15; type: cell-based; conditions: fixed 4 μg/mL ceftazidime; CAMHB, 16-20 hours at 37° C.
Excerpt: (§4) To determine the ability of test compounds to potentiate the inhibition of the growth of bacterial strains that produce beta-lactamase enzymes, classic cell based broth microdilution MIC assays were employed. Six bacteria strains producing beta-lactamase enzymes were used: E. coli expressing the Class A Extended Spectrum Beta-Lactamase (ESBL) CTX-M-15, E. cloacae expressing the Class C P99, K. pneumoniae expressing the Class A carbapenemase KPC-3, P. aeruginosa expressing the Class B carbapenemase VIM-2, K. pneumoniae expressing the class A carbapenemase KPC-2 and the class B carbapenemase VIM-4, and S. aureus producing the Class A penicillinase PC-1. The assay was conducted in Cation Adjusted Mueller Hinton Broth (CAMHB, BD #212322, BD Diagnostic Systems, Sparks, Md.). Bacteria strains were grown for 3-5 hours in CAMBH broth. Test compounds (Examples 1-30) were added to a microtiter plate in 2-fold serial dilutions in CAMHB in a final concentration range of 32 μg/mL to 0.25 μg/ml. An overlay of CAMHB containing a Beta-lactam was added to the compounds at a final static concentration of 4 μg/ml. […] In addition to the titration of test compounds the MICs of a panel of control beta-lactams is also tested to ensure the strains are behaving consistently from test to test. Once the test compound and antibiotics are added the plates can be inoculated according to CLSI broth microdilution method. After inoculation the plates are incubated for 16-20 hours at 37° C. then the Minimal Inhibitory Concentration (MIC) of the test compound is determined visually.
(§5) Using the methodology described above, examples of the current invention were evaluated for their ability to inhibit the growth of β-lactamase-producing bacteria in the presence of a β-lactam antibiotic.
(§6) Using the methodology described above in EXAMPLE III, exemplary compounds for Formula I or Formula Ia were evaluated for their ability to inhibit the growth of β-lactamase producing bacteria in the presence of a β-lactam antibiotic.

[6] = tested on: E. cloacae 144200 expressing Class C P99 AmpC; experiment: Broth microdilution MIC, E. cloacae 144200 p99 AmpC; type: cell-based; conditions: fixed 4 μg/mL ceftazidime; CAMHB, 16-20 hours at 37° C.
Excerpt: as §4, §5, §6

[7] = tested on: K. pneumoniae 156319 expressing KPC-3; experiment: Broth microdilution MIC, K. pneumoniae 156319 KPC-3; type: cell-based; conditions: for MIC of example compound in presence of fixed β-lactam: Fixed Mero, K. P. 156319 KPC-3: fixed 4 μg/mL meropenem, CAMHB, 16-20 hours at 37° C.
Excerpt: as §4, §5, §6

[8] = tested on: P. aeruginosa Ps296 expressing VIM-2; experiment: Broth microdilution MIC, P. aeruginosa Ps296 VIM-2; type: cell-based; conditions: for MIC of example compound in presence of fixed β-lactam: Fixed Mero, P. aerug. Ps296 VIM-2: fixed 4 μg/mL meropenem, CAMHB, 16-20 hours at 37° C.
Excerpt: as §4, §5, §6

[9] = tested on: K. pneumoniae A-1797 expressing KPC-2 and VIM-4; experiment: Broth microdilution MIC, K. pneumoniae A-1797 KPC-2/VIM-4; type: cell-based; conditions: for MIC of example compound in presence of fixed β-lactam: Fixed Mero, K. P. A-1797 KPC-2 VIM-4: fixed 4 μg/mL meropenem, CAMHB, 16-20 hours at 37° C.
Excerpt: as §4, §5, §6

[10] = tested on: S. aureus MSSA-7 producing penicillinase PC-1; experiment: Broth microdilution MIC, S. aureus MSSA-7 PC-1; type: cell-based
Excerpt: as §4, §5, §6

T1 sequence (P0A3M1 22-286): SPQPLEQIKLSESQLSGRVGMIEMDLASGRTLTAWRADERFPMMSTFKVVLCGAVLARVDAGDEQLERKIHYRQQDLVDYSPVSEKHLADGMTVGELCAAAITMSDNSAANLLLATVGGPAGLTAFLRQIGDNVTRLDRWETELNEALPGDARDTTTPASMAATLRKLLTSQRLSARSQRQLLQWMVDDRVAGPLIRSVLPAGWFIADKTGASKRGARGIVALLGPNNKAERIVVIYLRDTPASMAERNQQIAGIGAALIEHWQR
T2 sequence (Q9F663 25-293, looked up): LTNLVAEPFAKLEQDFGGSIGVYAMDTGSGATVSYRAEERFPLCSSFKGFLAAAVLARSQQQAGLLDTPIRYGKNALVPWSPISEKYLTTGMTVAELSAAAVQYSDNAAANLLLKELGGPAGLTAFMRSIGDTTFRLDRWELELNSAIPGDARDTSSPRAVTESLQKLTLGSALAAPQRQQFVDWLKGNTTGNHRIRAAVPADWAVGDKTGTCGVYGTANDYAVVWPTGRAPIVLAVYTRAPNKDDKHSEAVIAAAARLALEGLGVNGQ
T4 sequence (P05364 21-381): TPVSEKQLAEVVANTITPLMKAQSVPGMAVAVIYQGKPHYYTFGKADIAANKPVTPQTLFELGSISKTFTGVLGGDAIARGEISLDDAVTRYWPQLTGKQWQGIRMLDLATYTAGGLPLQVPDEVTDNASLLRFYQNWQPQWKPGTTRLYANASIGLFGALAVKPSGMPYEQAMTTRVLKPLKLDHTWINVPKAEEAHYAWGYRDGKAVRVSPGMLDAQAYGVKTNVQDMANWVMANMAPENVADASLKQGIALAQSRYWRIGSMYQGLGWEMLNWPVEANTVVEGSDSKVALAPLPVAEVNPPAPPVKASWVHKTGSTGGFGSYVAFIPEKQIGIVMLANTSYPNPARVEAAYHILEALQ

SMILES | IC50 [1] [nM] | IC50 [2] [nM] | IC50 [3] [nM] | IC50 [4] [nM] | MIC of example compound in presence of fixed β-lactam: Fixed CAZ, E. coli ESBL4 CTX-M-15 [5] | MIC of example compound in presence of fixed β-lactam: Fixed CAZ, E. cl. 144200 p99 AmpC [6] | MIC of example compound in presence of fixed β-lactam: Fixed Mero, K. P. 156319 KPC-3 [7] | MIC of example compound in presence of fixed β-lactam: Fixed Mero, P. aerug. Ps296 VIM-2 [8] | MIC of example compound in presence of fixed β-lactam: Fixed Mero, K. P. A-1797 KPC-2 VIM-4 [9] | MIC of example compound in presence of fixed β-lactam: Fixed Pip, S. aureus MSSA-7 PC-1 ([10]; fixed 4 μg/mL piperacillin, CAMHB, 16-20 hours at 37° C.) | MIC ([7]; Klebsiella pneumoniae, read-out: MIC alone, K. pneumoniae expressing KPC-3) [µg/mL] | MIC ([8]; Pseudomonas aeruginosa, read-out: MIC alone, P. aeruginosa expressing VIM-2) [µg/mL] | MIC ([9]; Klebsiella pneumoniae, read-out: MIC alone, K. pneumoniae expressing KPC-2 and VIM-4) [µg/mL] | MIC ([10]; Staphylococcus aureus, MSSA, partner antibiotic alone, no β-lactamase inhibitor) [µg/mL]
N=C(N)NCCN1CCN(CC(=O)N[C@H]2Cc3cccc(C(=O)O)c3OB2O)C(=O)C1 [Example 38, 3-{2-[4-(2-Guanidino-ethyl)-2-oxo-piperazin-1-yl]-acetylamino}-2-hydroxy-3,4-dihydro-2H-benzo[e][1,2]oxaborinine-8-carboxylic acid] | 100 to 1000 | 1000 to 10000 | 1000 to 10000 | < 100 | C (the MIC in the presence of <4 μg/mL of a β-lactamase inhibitor) | C (the MIC in the presence of <4 μg/mL of a β-lactamase inhibitor) | C (the MIC in the presence of <4 μg/mL of a β-lactamase inhibitor) | B (the MIC in the presence of between 8 and 32 μg/mL of a β-lactamase inhibitor) | A (an MIC of the fixed β-lactam antibiotic in the presence of >32 μg/mL of a β-lactamase inhibitor) | – | – | – | – | –
NCCCN1CCC(CC(=O)N[C@H]2Cc3cccc(C(=O)O)c3OB2O)CC1 [Example 42, 3-{2-[1-(3-Amino-propyl)-piperidin-4-yl]-acetylamino}-2-hydroxy-3,4-dihydro-2H-benzo[e][1,2]oxaborinine-8-carboxylic acid] | < 100 | < 100 | 1000 to 10000 | < 100 | C (the MIC in the presence of <4 μg/mL of a β-lactamase inhibitor) | C (the MIC in the presence of <4 μg/mL of a β-lactamase inhibitor) | C (the MIC in the presence of <4 μg/mL of a β-lactamase inhibitor) | B (the MIC in the presence of between 8 and 32 μg/mL of a β-lactamase inhibitor) | A (an MIC of the fixed β-lactam antibiotic in the presence of >32 μg/mL of a β-lactamase inhibitor) | C (the MIC in the presence of <4 μg/mL of a β-lactamase inhibitor) | – | – | – | –
C[C@@H](O)[C@H]1C(=O)N2C(C(=O)O)=C(S[C@@H]3CN[C@H](C(=O)N(C)C)C3)[C@H](C)[C@H]12 [Meropenem, reference compound] | – | – | – | – | – | – | – | – | – | – | > 128 | 16 | 64 | –
CCN1CCN(C(=O)N[C@@H](C(=O)N[C@@H]2C(=O)N3[C@@H]2SC(C)(C)[C@@H]3C(=O)O)c2ccccc2)C(=O)C1=O [Piperacillin, reference compound] | – | – | – | – | – | – | – | – | – | – | – | – | – | 64
